Columns and labels:
SR-B1 = molecular target: T1, SR-B1 (Homo sapiens, UniProt Q8WTV0); assay: BLT-1 cholesterol flux assays in SUDHL-4 cells; format: cell-based; settings: SUDHL-4 cells pre-treated with 10 μM BLT-1 for 2 hr
T1 construct: treatment of SUDHL-4 cells with BLT-1 allowed a measurement of engagement and cholesterol flux through SR-B1; endogenous in cells; host or cells: SUDHL-4 cells
T1 sequence (Q8WTV0 1-552): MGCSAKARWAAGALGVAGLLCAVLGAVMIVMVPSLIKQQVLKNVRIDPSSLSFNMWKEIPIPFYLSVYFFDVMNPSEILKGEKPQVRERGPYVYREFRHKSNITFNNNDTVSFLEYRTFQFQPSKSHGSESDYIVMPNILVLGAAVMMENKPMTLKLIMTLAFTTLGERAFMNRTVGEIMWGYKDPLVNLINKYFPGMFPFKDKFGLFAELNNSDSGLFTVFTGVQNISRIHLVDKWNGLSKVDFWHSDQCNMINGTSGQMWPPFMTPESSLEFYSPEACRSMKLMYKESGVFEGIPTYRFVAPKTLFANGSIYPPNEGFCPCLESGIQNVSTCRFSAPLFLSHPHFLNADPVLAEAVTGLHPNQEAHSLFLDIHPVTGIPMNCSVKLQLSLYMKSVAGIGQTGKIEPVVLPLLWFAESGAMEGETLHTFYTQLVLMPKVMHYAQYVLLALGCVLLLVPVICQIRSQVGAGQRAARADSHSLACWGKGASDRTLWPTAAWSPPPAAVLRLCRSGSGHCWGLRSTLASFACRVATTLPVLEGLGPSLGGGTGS
Protocol: Blocker of lipid transport-1 (BLT-1) is a small molecule that binds cysteine-384 in the extracellular loop domain of SR-B1 and inhibits cholesterol flux through SR-B1 without altering the binding of HDL particles to the receptor. Thus, treatment of SUDHL-4 cells with BLT-1 allowed a measurement of engagement and cholesterol flux through SR-B1.
Alterations in cholesterol flux after addition of blocker of lipid transport 1 (BLT-1) were measured as described above; however, cells were pre-treated with 10 μM BLT-1 (2-hexyl-1-cyclopentanone thiosemicarbazone, ChemBridge Corporation) for 2 hr prior to cell treatments. Following cholesterol influx or efflux, the cells were collected in fresh media for measurement of cholesterol flux as previously described. Efflux is expressed as a percentage of the control cells, which were not treated with BLT-1. Influx is expressed as a percentage of the control cells, which were not treated with BLT-1.

Ramos cells = assay: MTS cell viability assay; format: cell-based, human; settings: untreated control set to 100%
Text: Ramos and SUDHL-4 cell lines are GC-derived B cell lines from BL and DLBCL, respectively. In addition, we chose to study the ABC-like DLBCL line, LY3. Jurkat cells and normal human lymphocytes provided SR-B1 receptor negative controls. In addition, we also chose two primary cells known to express SR-B1 that are critical cell types naturally engaged by HDLs, hepatocytes and macrophages. For each of the cell types, we measured cell viability by an MTS assay following treatment with human serum derived HDL (hHDL) or HDL-NPs. MTS is a colorimetric assay where the magnitude of absorbance is proportional to cell viability. For each treatment, and for each comparison made throughout our studies, we added equivalent doses of hHDL and HDL-NPs based upon the amount of apolipoprotein A-1 (Apo A1). […] Treatment with hHDL or HDL-NPs had no effect in primary hepatocytes or macrophage cells (FIGS. 3C and 3D). […]
For primary human hepatocytes and CD14+ monocytes, 9×10^3 cells/90 μL were seeded in 96-well plates and allowed to attach, and differentiate in the case of the CD14+ monocytes, for 24 hours prior to initiation of treatment. […] The absorbance was read at 490 nm using a microplate reader (MRX Revelation; DYNEX Technologies) and was expressed as a percentage of the control group. […]

SMILES: CCCCCCC1CCCC1=NNC(N)=S (centres unmarked) [BLT-1, 2-hexyl-1-cyclopentanone thiosemicarbazone]
- cholesterol flux to hHDL and HDL-NPs (SR-B1): inhibited cholesterol flux

SMILES: CCCCCCCCCCCCCCCC(=O)OC[C@H](COP(=O)(O)OCCNC(=O)CCSSc1ccccn1)OC(=O)CCCCCCCCCCCCCCC [PDP PE, 1,2-dipalmitoyl-sn-glycero-3-phosphoethanolamine-N-[3-(2-pyridyldithio)propionate]]
- relative absorbance, MTS assay (cell viability) (Ramos cells): relatively small but statistically significant reduction

Reference: patent US20150064255A1, “NANOSTRUCTURES FOR TREATING CANCERS AND OTHER CONDITIONS” (Northwestern University, priority 2012, published 2015)
